Assay results taken from ChEMBL document CHEMBL1201862, “PubChem BioAssay data set” (2004).
Activity calls are given as the source filed them.

What was measured:
[1] = P. falciparum Dd2 growth inhibitors, dose response, SYBR Green, cherry-picked samples (AID 1159567); format: functional, cell-based
[2] = molecular target: T1, High affinity choline transporter 1 (Homo sapiens, UniProt Q9GZV3); assay: human choline transporter blockers, potency – cell-based, 5-point CRC, membrane potential dye, dose response (AID 504840); format: functional
T1 sequence (Q9GZV3 whole entry): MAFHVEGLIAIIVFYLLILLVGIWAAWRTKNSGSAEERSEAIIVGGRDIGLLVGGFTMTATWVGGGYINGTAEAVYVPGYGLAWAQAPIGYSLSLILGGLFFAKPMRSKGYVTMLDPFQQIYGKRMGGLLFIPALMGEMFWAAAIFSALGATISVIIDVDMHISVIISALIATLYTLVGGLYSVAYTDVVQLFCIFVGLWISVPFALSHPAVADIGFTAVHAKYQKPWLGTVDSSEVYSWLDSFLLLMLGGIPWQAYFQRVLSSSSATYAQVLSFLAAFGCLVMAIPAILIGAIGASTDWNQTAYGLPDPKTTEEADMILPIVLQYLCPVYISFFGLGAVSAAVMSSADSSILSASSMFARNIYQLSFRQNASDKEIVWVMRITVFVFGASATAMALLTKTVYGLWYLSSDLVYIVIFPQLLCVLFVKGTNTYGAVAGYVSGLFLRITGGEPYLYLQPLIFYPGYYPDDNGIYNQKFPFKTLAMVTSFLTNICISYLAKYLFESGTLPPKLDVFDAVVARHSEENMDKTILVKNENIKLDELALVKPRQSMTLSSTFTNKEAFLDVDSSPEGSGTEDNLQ

[3] = Vero E6 cell cytotoxicity, dose response, cytotoxicity control for non-replicating M. tuberculosis project, secondary assay (AID 492998); format: functional, VeroE6; conditions: Vero C1008
[4] = microbe, parasite or virus in culture; format: functional; conditions: Mycobacterium tuberculosis
cells = format: functional
[5] = NIH-3T3 fibroblast cytotoxicity, dose response, cytotoxicity control, cell-based, fluorescence, Alamar Blue, secondary assay (AID 2327); format: functional;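 further: NIH-3T3 mouse fibroblasts cultured with fluconazole at 8 µg/mL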
[6] = THP-1 cell cytotoxicity, dose response, cytotoxicity control for non-replicating M. tuberculosis project (AID 489025); format: functional
[7] = fluconazole-exposed Candida albicans growth modulators – fluorescence, retest, confirmation (AID 2467); format: functional, cell-based
[8] = molecular target: Heat shock protein HSP 90-alpha (Homo sapiens, UniProt P07900); format: functional, organism-based
H9c2 = assay: cells; format: functional, cell-based; conditions: Rattus norvegicus, H9c2, Myocardium;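 further: confirmatory concentration-response retest of ultra-high-throughput screening hits for modulation of myocardial damage; cell death induced by hydrogen peroxide oxidative stress; compound pretreatment for 60 min then peroxide exposure for 2 h; potency is for protecting the cells against peroxide damage rather than for killing them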
[9] = molecular target: T2, RNA-binding protein pos-1 (Caenorhabditis elegans, UniProt G5EF15); assay: disruptors of C. elegans POS-1 RNA interaction – biochemical, fluorescence polarization, dose response (AID 1964);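 further: purified POS-1 fused to maltose binding protein made in E. coli; potency of compounds blocking POS-1 binding to fluorescent RNA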
T2 sequence (G5EF15 whole entry): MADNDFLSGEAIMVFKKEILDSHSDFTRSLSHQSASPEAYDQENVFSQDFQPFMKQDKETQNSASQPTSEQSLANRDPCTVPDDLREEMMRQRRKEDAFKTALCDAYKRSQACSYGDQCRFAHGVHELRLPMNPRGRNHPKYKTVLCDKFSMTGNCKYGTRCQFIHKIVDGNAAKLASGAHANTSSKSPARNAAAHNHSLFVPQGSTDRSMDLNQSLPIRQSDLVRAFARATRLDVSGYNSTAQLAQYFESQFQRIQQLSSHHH

[10] = molecular target: T3, Zinc finger protein mex-5 (Caenorhabditis elegans, UniProt Q9XUB2); assay: potency of MEX-5 RNA-binding blockers – biochemical, C. elegans, fluorescence polarization, dose response (AID 1960)
T3 sequence (Q9XUB2 whole entry): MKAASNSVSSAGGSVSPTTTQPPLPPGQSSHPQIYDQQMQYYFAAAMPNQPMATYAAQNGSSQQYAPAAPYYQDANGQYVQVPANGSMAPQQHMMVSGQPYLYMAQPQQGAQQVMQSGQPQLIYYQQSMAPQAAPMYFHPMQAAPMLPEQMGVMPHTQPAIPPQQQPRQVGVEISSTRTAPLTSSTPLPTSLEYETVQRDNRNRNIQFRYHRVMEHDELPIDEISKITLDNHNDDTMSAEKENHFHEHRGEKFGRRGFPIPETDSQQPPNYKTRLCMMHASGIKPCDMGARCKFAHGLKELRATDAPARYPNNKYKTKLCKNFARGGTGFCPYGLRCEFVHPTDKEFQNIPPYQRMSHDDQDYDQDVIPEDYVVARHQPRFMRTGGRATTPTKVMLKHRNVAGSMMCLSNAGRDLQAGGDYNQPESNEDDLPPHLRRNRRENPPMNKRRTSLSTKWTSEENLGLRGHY

[11] = molecular target: Induced myeloid leukemia cell differentiation protein Mcl-1 (Homo sapiens, UniProt Q07820); format: functional
[12] = HEK-293T viability loss after treatment – luminescence, T-cell screen hits, cytotoxicity control for TCR NF-kB inhibitor project, dose response (AID 489026); format: functional, cell-based;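 further: cells exposed to compound about 14 hours before the viability readout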
[13] = blockade of melanocortin 4 receptor signaling – cell-based, plate reader, cherry pick, counter-screen for LGR2 antagonist project, dose response (AID 743444); format: functional;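 further: transfected HEK 293 cells stimulated with alpha-MSH peptide; potency of inhibitors of the alpha-MSH evoked signal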
[14] = A549 cell cytotoxicity, dose response, cytotoxicity control, plate reader, cherry-pick, antagonist series (AID 743412); format: functional, cell-based
[15] = toxicity toward HepG2 liver cells – cell-based, plate reader, cherry-pick, antagonist series, cytotoxicity control, dose response (AID 743416); format: functional
[16] = viability loss in HEK293 cells – cell-based, plate reader, cherry-picked samples, cytotoxicity control, dose response (AID 743446); format: functional
[17] = blockers of bursicon-stimulated LGR2 cAMP reporter – cell-based, HEK293, CRE-luciferase reporter, cherry pick, set 2, dose response (AID 743343); format: functional;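 further: transfected cells were stimulated with diluted bursicon conditioned medium after compound addition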
P388/ADR = assay: cells; format: functional; conditions: Mus musculus
P388 = assay: cells; format: functional; conditions: Mus musculus
SN12K1 = assay: cells; format: functional; conditions: Homo sapiens
[18] = viability of uninfected HEp-2 cells – cell-based, HTS, cytotoxicity control for RSV inhibitor project, dose response (AID 2410); format: functional; conditions: human respiratory syncytial virus
[19] = Luminescence Cell-Based Dose Response HTS to Identify Inhibitors of 5'UTR Stem-Loop Driven Prion Protein mRNA Translation in H4 Neuroglioblastoma Cells. [Related pubchem assays: 1827 (Project Summary), 1813 (Primary HTS)]; format: functional
[20] = NIH3T3 cell viability loss – ATP luminescence, mouse fibroblasts, counter-screen, dose response (AID 2010); format: functional, cell-based;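 further: cells exposed to compound for about 90 hours before reading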
[21] = Trypanosoma cruzi growth suppression in host cells – NIH3T3 host cells, beta-gal luminescence, confirmation (AID 2044); format: functional, cell-based;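 further: intracellular parasites grown in NIH/3T3 mouse fibroblasts as host cells; luminescent beta-galactosidase reporter signal from transgenic T. cruzi replicating inside host cells; inhibitors lower the luminescence signal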
[22] = alpha-synuclein stem-loop luciferase translation blockers – H4 neuroglioma cells, luminescence, confirmation (AID 1988); format: functional, cell-based
[23] = luciferase reporter signal suppression in cells – H4 neuroglioma cells, luminescence, dose response (AID 1990); format: functional, cell-based

Sequence of Induced myeloid leukemia cell differentiation protein Mcl-1 (Q07820 whole entry): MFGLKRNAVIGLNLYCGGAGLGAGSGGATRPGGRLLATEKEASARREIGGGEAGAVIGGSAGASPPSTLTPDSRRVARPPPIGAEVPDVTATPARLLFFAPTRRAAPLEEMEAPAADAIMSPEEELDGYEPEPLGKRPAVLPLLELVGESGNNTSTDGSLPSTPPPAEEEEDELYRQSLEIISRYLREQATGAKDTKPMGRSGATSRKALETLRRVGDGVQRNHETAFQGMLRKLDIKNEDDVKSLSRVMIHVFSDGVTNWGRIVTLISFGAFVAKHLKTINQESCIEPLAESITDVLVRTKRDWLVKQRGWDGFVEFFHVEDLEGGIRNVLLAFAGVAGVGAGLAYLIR

With COc1ccccc1NC(=O)N1CC[C@H]2[C@@H]1c1cc(C#Cc3ccc(F)cc3)ccc1N(C)[C@H]2CO the AC50 [1] was 4.14 µM (active).

In the case of COc1ccc(OC)c(/C=C2\SC(=S)N(NS(=O)(=O)c3ccccc3)C2=O)c1, the IC50 [2] is reported as 8.71 µM (active).

In the case of Cc1noc2ncnc(Sc3ccc(Cl)cc3)c12, the CC50 [3] is reported as > 20 µM (active), the CC50 [4] is reported as 27.1 µM (active) and the IC50 (cells) is reported as 8.82 µM (active). For the same compound, the EC50 [5] was > 160 µM (inconclusive), the CC50 [6] was 21.3 µM (active) and the EC50 [7] was > 38 µM (not active).

For N=C(Cc1ccc(Cl)cc1Cl)NOC(=O)c1ccc(Br)o1, the AC50 [8] was 3.11 µM (active).

For COc1ccnc(Oc2ccccc2)c1C(=O)N=CNOCc1ccc(F)cc1Cl, the IC50 (H9c2) was > 79 µM (inactive).

For COc1ccc(C2=CC3=C(Br)C(=O)C(C)(OC(=O)C4CCCC4)C(=O)C3=CO2)cc1 (stereo not given), the AC50 [8] was 1.68 µM (active), the EC50 [9] was 43.7 µM (active) and the EC50 [10] was > 300 µM (not active).

With COc1ccc(CCNC(=O)CN(c2ccc(OC)c(OC)c2)S(C)(=O)=O)cc1 the IC50 [11] was 26 µM (not active).

With CCCCCN1C=CC(=C2C(=O)c3ccccc3C2=O)C=C1 the IC50 [12] was > 80 µM (inactive).

For Cc1ccc(C(=O)Nc2ccc3c(c2)OCCO3)c(C)c1, the AC50 [13] was 2.42 µM (active), the AC50 [14] was 44.6 µM (active) and the AC50 [15] was > 52 µM (inactive). The AC50 [16] was > 52 µM (inactive) and the AC50 [17] was 2.74 µM (active).

With COc1ccc(CC(N)=O)cc1OC the GI50 (P388/ADR) was > 1250 µM (inactive), the GI50 (P388) was > 1250 µM (inactive) and the GI50 (SN12K1) was > 1250 µM (inactive).

With Cn1nnnc1Sc1ncnc2scc(-c3ccccc3C(F)(F)F)c12 the CC50 [18] was 7.66 µM (active), the AC50 [14] was 20.7 µM (active) and the AC50 [16] was 27.9 µM (active).

In the case of O=[N+]([O-])c1nn(-c2ccccc2)[n+]([O-])c1NC1CCN(Cc2ccccc2)CC1, the EC50 [19] is reported as > 120 µM (not active), the EC50 [20] is reported as > 60 µM (not active) and the EC50 [21] is reported as 0.25 µM (active). The EC50 [22] was 10.9 µM (active) and the EC50 [23] was 14 µM (active).

In the case of O=C(Nc1ccccc1)Oc1cccc2cccnc12, the AC50 [8] is reported as 3.44 µM (active).

In the case of O=C(COc1ccc2c(c1)OCO2)Nc1nccs1, the AC50 [13] is reported as 10.2 µM (active), the AC50 [14] is reported as > 52 µM (inactive) and the AC50 [15] is reported as > 52 µM (inactive). The AC50 [16] was 20.6 µM (active) and the AC50 [17] was 7.13 µM (active).

For COC(=O)N/N=C/c1ccc([N+](=O)[O-])s1, the CC50 [3] was > 20 µM (active) and the IC50 (cells) was 30.5 µM (active).

With O=C(NC1CCCCC1)C(c1ccc2ncccc2c1)N(Cc1ccc2c(c1)OCO2)C(=O)c1ccc2c(c1)OCCO2 (stereo not given) the IC50 [2] was 15.1 µM (active).

For O=[N+]([O-])c1cccc2c1[nH]c1c(-c3ccccc3)nccc12, the GI50 (P388/ADR) was 2.52 µM (inactive), the GI50 (P388) was 2.52 µM (inactive) and the GI50 (SN12K1) was 1.72 µM (inactive).

In the case of Cn1c(=O)[nH]c(=O)c2c1nc(N(CCO)Cc1ccccc1)n2CCCc1ccccc1, the IC50 (H9c2) is reported as 13.8 µM (active).

For C=CC[C@@H](CC(=O)NCCO)C(=O)NC[C@H](OC(=O)[C@@H](CC=C)Cc1ccc(F)cc1)c1ccccc1, the IC50 (H9c2) was > 79 µM (inactive).
